According to US12433873B2, “Microtubule polymerization inhibitor prodrugs and methods of using the same” (University of Maryland, Baltimore, priority 2017, dated 2025):
“Also recorded” adds a separate entry of the source.

How the values were obtained:
[1] = test system: mdx mice; test: In vivo nerve evoked torque and eccentric injury of the gastrocnemius muscle in mdx mice; set-up: species or system mouse; conditions: 20 eccentric contractions of gastrocnemius, FIG. 2D
Experimental: FIGS. 2A-2D illustrate that targeting microtubule density in vivo is solely sufficient to decrease contraction-induced injury in mdx mice. Nerve evoked torque and eccentric injury of the gastrocnemius muscle in vivo (FIG. 2A). […] Normalized torque records of the initial (time=0; wild-type in black, mdx in red) and 20th (grey) eccentric contractions (FIG. 2C).
Skeletal Muscle Function. Evan's blue dye (EBD) (5 μg/μl solution in PBS; 5 μl/g body weight) can be injected I.P. 24 hrs before the assay. The in vivo assessment of the nerve evoked isometric force vs. stimulation frequency relationship of the gastrocnemius can be determined as described in the art. The maximal isometric force (post hoc normalized to estimated cross sectional area) can be taken as the measure of functional quality of the muscle. […]
Susceptibility to contraction injury (skeletal muscle) can be assessed across each treatment cohort. As in FIG. 2, the % force deficit after 20 eccentric contractions of the gastrocnemius muscle can be determined. […] Thirty minutes after the last eccentric contraction, blood (orbital sinus) can be collected and analyzed for creatine kinase (CK) activity. […] After the trials, the muscle tissue can be processed and % EBD positive fibers can be used to quantitate the extent of muscle damage at rest (uninjured leg) or with injury.

[2] = test system: OCY-293 cells; test: In vitro microtubule destabilization in OCY-293 cells stably expressing GFP-tubulin; assay type: cell-based; conditions: 10-120 minutes, 0.3-100 μM
Experimental: Cell treatment: OCY-293 cells stably expressing GFP-tubulin were cultured in 96-well plates at 37° C. in modified DMEM. […] Control cells were treated with vehicle. DAPI was added to each well to identify the nuclei. At each time point, cells were fixed with 4% paraformaldehyde and stored at 4° C. in the dark until imaging.
Imaging and Analysis: Cells were imaged to assess microtubule structure using fluorescence microscopy (Nikon TIe) with 5 images taken in different locations of each well. The images were digitized in two channels (GFP to visualize tubulin, and therefore microtubules; and DAPI to visualize nuclei). The microtubule area was traced, and nuclei were counted using predictive software (Nikon Elements v4.51) via unbiased automated measurements of each image in each of the wells. The microtubule area was normalized to the number of nuclei.

[3] = test system: mdx mice; test: Isoproterenol cardiac stress test in mdx mice; assay type: in vivo, mouse
Experimental: FIGS. 5A-5D illustrate that colchicine blunts isoproterenol-induced cardiac damage in mdx and prevents cardiac arrhythmias. Wild-type and mdx mice were injected with Evan's blue dye one day prior then underwent an isoproterenol cardiac stress test and heart rate measured. […] Conversely, mdx mice cannot upregulate their heart rate to the same extent (˜2 fold) and only do so for a short period (30-45 min) before suffering severe arrhythmias and cardiac death, with only 10% survival.
Isoproterenol Cardiac Stress and Sarcolemmal Damage of the Heart. Catecholaminergic work-load stress induces atrial fibrillation (AF), ventricular tachycardia (VT) and sudden cardiac death (SCD) in mdx mice and this can be prevented by colchicine treatment (FIG. 5). To assess if colchicine pro-drugs prevent AF, VT and SCD, Evan's blue dye (EBD) (5 μg/μl solution in PBS; 5 μl/g body weight) can be injected I.P. 24 hrs before the assay. Mice are first anesthetized with sodium pentobarbital, and the heart rate monitored by a single-lead electrocardiogram. Isoproterenol is then used to pharmacologically increase the level of mechanical stress imposed on the heart. The mice are killed 3 hours after the administration of isoproterenol and the heart mounted in cryomatrix, sectioned and assessed for sarcolemmal damage.

[4] = test system: mdx muscle fibers; test: X-ROS, Ca2+ signaling and microtubule density in mdx muscle fibers in vitro; assay type: cell-based, mouse
From the text: FIGS. 1A-1E illustrate that microtubules underlie dysfunction in DMD. Aggregate DFF signals from WT (Black; n=5) and mdx (Red; n=6) muscle fibers (FIG. 1A). Mean values from A show a significant increase in X-ROS in the mdx (*p<0.05) that is blunted by colchicine (FIG. 1B). X-ROS leads to Ca^2+ influx that is blocked by microtubule depolymerization (FIG. 1C). Microtubule density is elevated in mdx fibers and reduced by colchicine (FIGS. 1D and 1E).
In murine DMD (mdx), it has been discovered that disease-driven alterations in microtubule network density and properties underscore the deleterious excess of Nox2-ROS and Ca^2+ signals in skeletal muscle and heart. Using colchicine, a drug that promotes microtubule depolymerization, it has been shown that reducing microtubule density normalized the dysregulated ROS and Ca^2+ signaling in DMD muscle fibers in vitro (see FIG. 1). […] The significance of these pre-clinical discoveries was bolstered by transcriptional evidence (RNASeq) for microtubule excess in muscle biopsy samples from affected DMD patients.

[5] = cited from earlier work

SMILES: COc1cc(C(C)=O)ccc1O [apocynin]
- force loss / contraction injury after eccentric contractions [1]: significant protection from force loss

SMILES: CCCCCCCCCCCCCCCC(=O)OCOC(=O)N(C)[C@H]1CCc2cc(OC)c(OC)c(OC)c2-c2ccc(OC)c(=O)cc21 [compound 10]
- microtubule depolymerization (microtubule area normalized to number of nuclei) [2]: dampened depolymerization at higher concentrations only

SMILES: COc1cc2c(c(OC)c1OC)-c1ccc(OC)c(=O)cc1[C@@H](NC(C)=O)CC2 [colchicine]
- cardiac death and arrhythmia ([3]; mdx mice after isoproterenol cardiac stress): prevents cardiac death and arrhythmia
- survival ([3]; mdx mice after isoproterenol cardiac stress (untreated mdx 10% survival)): 90%
- cardiac integrity (histological analysis, Evan's blue) ([3]; mdx mice, FIGS. 5C and 5D): significant preservations of cardiac integrity
- increase in cardiac workload ([3]; mdx mice, compared to untreated animals): supports the increase in cardiac workload significantly
- Microtubule density in mdx fibers ([4]; FIGS. 1D and 1E): reduced
- dysregulated ROS and Ca2+ signaling in DMD muscle fibers ([4]; in vitro, FIG. 1): normalized
- X-ROS (DFF signal) increase in mdx muscle fibers ([4]; mdx muscle fibers, FIG. 1B): blunted
- force loss / contraction injury after eccentric contractions [1]: reduced contraction injury; also recorded: significant protection from force loss
- microtubule depolymerization (microtubule area normalized to number of nuclei) [2]: rapid depolymerization at low concentrations
- therapeutic window: lethal dose ([5]; in vivo): 16-30 × therapeutic dose
- absorption, median ([5]; oral): 45%
- half-life ([5]; orally dosed): 1 to 2.7 h
- time of peak plasma concentration ([5]; orally dosed): 30 to 90 min

SMILES: COc1cc2c(c(OC)c1OC)-c1ccc(OC)c(=O)cc1[C@@H](N(C)C(=O)OC(C)OC(C)=O)CC2 (stereo partly shown) [compound 7]
- microtubule depolymerization (microtubule area normalized to number of nuclei) [2]: delayed and reduced depolymerization at all concentrations
